In series [1] the test system is MDA-MB-435 (melanoma) cancer cell line. Nature of the series: Cytotoxicity assay, MDA-MB-435 cells. Format: cell-based, human. The conditions noted are these: for factor by which activity is reduced relative to compound 5: MDA-MB-435 cells, versus 5; for IC50: Homo sapiens, MDA-MB-435, 72 h, read-out: IC50 values, MDA-MB-435.
For series [2], the system named is HT-29 (colon) cancer cell line. The series can be described thus: Cytotoxicity assay, HT-29 cells. Format: cell-based, human. The settings on record: for IC50: Homo sapiens, HT-29, 72 h, read-out: IC50 values, HT-29.
The nature of series [3]: Stability in solution. Format: physicochemical. The settings on record: CDCl3.

As to `COc1cc(O)c(Cl)c2c1C(=O)O[C@@H](C)CCC(=O)CC/C=C/C(=O)C2` [Compound 1, greensporone A], the “factor by which activity is reduced relative to compound 5” value in series [1] is recorded as ~5.

One may read the IC50 as the midpoint of a concentration-inhibition curve. For `COc1cc(O)c(Cl)c2c1C(=O)O[C@@H](C)CCC(=O)CC/C=C\C(=O)C2` [Compound 2, greensporone B], the IC50 in series [2] and in series [1] was > 20 µM throughout. Consider `COc1cc(O)c(Cl)c2c1C(=O)O[C@@H](C)CCC(=O)CCCCC(=O)C2` [Compound 3, 8,9-dihydrogreensporone A], for which the IC50 in series [2] and in series [1] was > 20 µM each time. For the compound `COc1cc(O)cc2c1C(=O)O[C@@H](C)CCC(=O)CC/C=C/C(=O)C2` [Compound 4, dechlorogreensporone A], in series [1], the “factor by which activity is reduced relative to compound 5” value is recorded as ~5. For the compound `C[C@H]1CCCCC/C=C/C(=O)Cc2cc(O)cc(O)c2C(=O)O1` [Compound 6, O-desmethylgreensporone C], the “factor by which activity is reduced relative to compound 5” value in series [2] (HT-29 cells, versus 5) stood at 2; in series [1], 5.

`COc1cc(O)cc2c1C(=O)O[C@@H](C)CCCCCCCC(=O)C2` [Compound 7, 8,9-dihydrogreensporone C]: the IC50 in series [2] and in series [1] was > 20 µM each time. Take `COc1cc(O)c(Cl)c2c1C(=O)O[C@@H](C)CC[C@@H](O)CC/C=C/C(=O)C2` [Compound 8, greensporone D]: the stability in solution entry in series [3] is “converted to 12”. In the case of `COc1cc(O)c(Cl)c2c1C(=O)O[C@@H](C)CC[C@@H](O)CC/C=C\C(=O)C2` [Compound 9, greensporone E], the IC50 in series [2] and in series [1] was > 20 µM in each case. With `COc1cc(O)cc2c1C(=O)O[C@@H](C)CC[C@@H](O)CC/C=C/C(=O)C2` [Compound 10, dechlorogreensporone D], the “factor by which activity is reduced relative to compound 5” value in series [1] was ~4. `COc1cc(O)c(Cl)c2c1C(=O)O[C@@H](C)CC[C@@H](O)CCCCC(=O)C2` [Compound 11, 8,9-dihydrogreensporone D]: the half-inhibitory concentration (IC50) in series [2] and in series [1] was > 20 µM in each case.

`COc1cc(O)cc2c1C(=O)O[C@@H](C)CC[C@H]1CC[C@@H](CC(=O)C2)O1` [Compound 13, dechlorogreensporone F]: the 50% inhibitory concentration (IC50) in series [2] and in series [1] was > 20 µM each time.

`COc1cc(O)cc2c1C(=O)O[C@@H](C)CC[C@H]1CC[C@H](CC(=O)C2)O1` [Compound 14, greensporone G]: the IC50 in series [2] and in series [1] was > 20 µM in each case.

These data come from PMC4176394 (Journal of Natural Products, 2014).
